# Experimental data published in US4510136A (priority 1983, dated 1985).
# Assays:
# Uromyces phaseoli = assay: Bean rust control on sprayed bean seedlings (Example 85); assay type: in vivo
# Description: This suspension was sprayed to the point of run-off on bean seedlings. The following day, the plants were inoculated with a spore suspension of the fungus Uromyces phaseoli, causal agent of bean rust, and incubated in a saturated humidity chamber at 20° for 24 hours and then in a greenhouse for 7 days. Disease ratings were then made. Treated plants from successful treatments had few or no rust pustules in contrast to untreated plants which were covered with rust pustules.
# 5 Phytophthora species = assay type: cell-based; conditions: 200.0 ppm in V-8 agar, 22° C., 6 days
# Erysiphe graminis = assay: Barley powdery mildew control on sprayed barley seedlings (Example 81); assay type: in vivo; conditions: Blumeria graminis, 168 h; for pest or weed control at 100 ppm: 100 ppm spray, day before inoculation
# Description: The compounds of the previous examples were again dissolved in acetone in an amount equal to 6% of the final volume and then suspended at a concentration of 100 ppm in purified water containing 250 ppm of the surfactant TREM 014 (polyhydric alcohol esters). These suspensions were sprayed to the point of run-off on barley seedlings. The following day, the plants were inoculated with a spore suspension of the fungus Erysiphe graminis, causal agent of barley powdery mildew, and incubated in growth room for 7 days. Disease ratings were then made. Treated plants from successful treatments had little or no powdery mildew in contrast to untreated plants which were covered with powdery mildew.
# bean seedlings = assay: Phytotoxicity on bean seedlings (Example 85); assay type: in vivo; design: key: G = growth reduction; H = hormonal effects; conditions: 80 ppm spray
# Rhizoctonia solani = assay: Rice sheath blight control on sprayed rice seedlings (Example 87); assay type: in vivo; conditions: Rhizoctonia solani, 168 h, 100 ppm spray, day before inoculation
# Outline: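 Disease ratings followed 7 days' growth-room incubation of seedlings given a bran/R. solani mycelium inoculum. Inoculation took place one day after spraying to run-off. The spray was a 100 ppm compound suspension in water containing 6% acetone and 250 ppm TREM 014.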
# Pyricularia oryzae = assay: whole plant or invertebrate; assay type: in vivo; conditions: Pyricularia oryzae, 168 h, read-out: % Control of Rice Blast, 100 ppm spray, day before inoculation
# Pythium aphanadermatum [1] = assay: Pythium control on cotton, seed coating (Example 91); assay type: in vivo; conditions: 168 h, 2 gm/kg seed
# From the text: Several compounds of the previous examples were incorporated into a proprietary formulation and used to coat cotton seeds at a rate of 2 gm/kg seed. After being thoroughly coated, the seeds were allowed to air dry at room temperature. The cotton seeds were then planted into soil amended with the fungus Pythium aphanadermatum, sand, and corn meal at a rate sufficient to kill most untreated seeds. The seeds were held at room temperature for 1 week, after which time disease ratings were made.
# [2] = system: Puccinia recondita var. tritici; assay: Wheat leaf rust control on sprayed wheat seedlings (Example 79); assay type: in vivo; conditions: Puccinia recondita, 168 h; for pest or weed control at 100 ppm: 100 ppm spray, day before inoculation
# Outline: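 Disease was scored as leaf rust pustules 7 days after a 24 h, 20° saturated-humidity incubation of seedlings inoculated with P. recondita var. tritici spores. Inoculation followed by one day a run-off spray of 100 ppm compound in water containing 6% acetone and 250 ppm TREM 014.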
# Phytophthora infestans = assay: whole plant or invertebrate; assay type: in vivo; conditions: Phytophthora infestans, in Solanum lycopersicum, 168 h, read-out: % Control of Tomato Late Blight, 100 ppm spray, day before inoculation
# Helminthosporium maydis = assay: Southern corn leaf blight control on sprayed corn seedlings (Example 83); assay type: in vivo; conditions: Bipolaris maydis, 192 h, 100 ppm spray, day before inoculation
# Outline: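 Corn seedlings were sprayed to run-off with 100 ppm suspensions (6% acetone, 250 ppm TREM 014) and spore-inoculated the following day. Disease and growth reduction were rated after 24 h saturated humidity at 20° plus 7 days in a growth room.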
# Cercospora arachidicola = assay: Peanut early leafspot control on sprayed peanut seedlings (Example 84); assay type: in vivo; conditions: Mycosphaerella arachidis, 360 h, 100 ppm spray, day before inoculation; read-out: % Control Peanut Easly Leafspot
# cucumber seedlings = assay: Phytotoxicity on cucumber seedlings (Example 80); assay type: in vivo; design: key: G = growth reduction; H = hormonal effects; conditions: 100 ppm spray
# Outline: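 Disease was rated 7 days after inoculation with powdery mildew spores, which followed one day after a run-off spray of 100 ppm compound in water with 6% acetone and 250 ppm TREM 014. Growth reduction or hormonal effects on the seedlings were recorded as phytotoxicity.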
# Venturia inaequalis = assay: Apple scab control on sprayed apple seedlings (Example 82); assay type: in vivo; conditions: Venturia inaequalis; for pest or weed control at 100 ppm: 100 ppm spray, day before inoculation
# Monilinia fructicola = assay: Stone fruit brown rot control on dipped canned peach halves (Example 86); conditions: 120 h, 100 ppm dip, percent growth inhibition of colonies after five days
# From the text: Several compounds of the previous examples were again dissolved in acetone in an amount equal to 5% of the final volume and then suspended at a concentration of 100 ppm in purified water containing 700 ppm of the surfactant TREM 014 (polyhydric alcohol esters). Canned peach halves were dipped in this suspension for three minutes and then placed to air dry in sterile containers. Upon drying, the peach halves were inoculated with two pieces of Monilinia fructicola mycelium, causal agent of stone fruit brown rot, and incubated in the sterile containers for five days. At that time the radii of the colonies' growth were measured on each peach. […] Percent disease control (percent growth inhibition of colonies on treated peaches as compared to that of colonies on untreated peaches) is expressed in the table below.
# Erysiphe cichoracearum = assay: Cucumber powdery mildew control on sprayed cucumber seedlings (Example 80); assay type: in vivo; conditions: Golovinomyces cichoracearum, 168 h; for pest or weed control at 100 ppm: 100 ppm spray, day before inoculation
# apple seedlings [3] = assay: Phytotoxicity on apple seedlings (Example 82); assay type: in vivo; design: key: G = growth reduction; H = hormonal effects; conditions: 100 ppm spray
# Description: (§1) These suspensions were sprayed to the point of run-off on apple seedlings. The following day, the plants were inoculated with a spore suspension of the fungus Venturia inaequalis, causal agent of apple scab, and incubated in a saturated humidity chamber at 20° for 24 hours and then in a growth room for an additional 10-12 days. Treated plants from successful treatments had fewer apple scab lesions when compared to untreated plants which were covered with scab lesions. Phytotoxicity expressed as growth reduction was observed on some of the plants in association with disease control.
# apple seedlings [4] = assay: Phytotoxicity on apple seedlings (Example 82); assay type: in vivo; design: key: G = growth reduction; C = chlorosis; B = burn
# Description: as §1
# Pythium aphanadermatum [5] = assay: Pythium control on corn, seed coating (Example 92); assay type: in vivo; conditions: 504 h, 2 gm/kg seed
# Description: Several compounds of the previous examples were incorporated into a proprietary formulation and used to coat corn seeds at a rate of 2 gm/kg seed. After being thoroughly coated, the seeds were allowed to air dry at room temperature. The seeds were then planted into soil amended with a mixture of the fungus Pythium aphanadermatum, sand, and corn meal at a rate sufficient to kill most untreated seeds. The seeds were held at 49° F. for 2 weeks and then at 70° F. for 1 additional week. After this time disease ratings were made.
smiles,measurement,setting,value
"C[Si](C)(Cn1cncn1)c1ccc(-c2ccccc2)cc1 [(1,1'-Biphenyl-4-yl)dimethyl(1H--1,2,4-triazol-1-ylmethyl)si] [(1,1'-Biphenyl-4-yl)dimethyl(1H-1,2,4-triazol-1-ylmethyl)silane]",% Control Bean Rust,"Uromyces phaseoli; 80 ppm spray, day before inoculation",100%
same,No. of 5 Phytophthora species controlled in vitro,5 Phytophthora species,0
"C[Si](C)(Cn1cncn1)c1ccc(Cl)cc1Cl [(2,4-Dichlorophenyl)dimethyl(1H-1,2,4-triazol-1-ylmethyl)silane]",pest or weed control at 100 ppm,Erysiphe graminis,100%
same,Phytotoxicity on bean,bean seedlings,G
same,No. of 5 Phytophthora species controlled in vitro,5 Phytophthora species,0
same,pest or weed control at 100 ppm,Rhizoctonia solani,0%
same,pest or weed control at 100 ppm,Pyricularia oryzae,0%
same,pest or weed control at 2 g/kg seed,Pythium aphanadermatum [1],0%
same,pest or weed control at 100 ppm,[2],90%
same,pest or weed control at 100 ppm,Phytophthora infestans,0%
same,pest or weed control at 100 ppm,Helminthosporium maydis,90%
same,pest or weed control at 100 ppm,Cercospora arachidicola,100%
same,Phytotoxicity on cucumber,cucumber seedlings,H
same,pest or weed control at 100 ppm,Venturia inaequalis,100%
same,inhibition of growth at 100 µg/mL,Monilinia fructicola,100%
same,pest or weed control at 100 ppm,Erysiphe cichoracearum,100%
"C[Si](Cn1cncn1)(c1ccccc1)c1ccc(Cl)cc1 (stereo not shown) [(4-Chlorophenyl)methyl(phenyl)(1H-1,2,4-triazol-1-ylmethyl)silane]",% Control Bean Rust,Uromyces phaseoli; applied at 16 ppm,98%
same,No. of 5 Phytophthora species controlled in vitro,5 Phytophthora species,0
same,pest or weed control at 100 ppm,Rhizoctonia solani,90%
same,pest or weed control at 100 ppm,Pyricularia oryzae,100%
same,pest or weed control at 100 ppm,[2],100%
same,pest or weed control at 100 ppm,Phytophthora infestans,0%
same,pest or weed control at 100 ppm,Helminthosporium maydis,90%
same,pest or weed control at 100 ppm,Cercospora arachidicola,100%
same,Phytotoxicity on cucumber,cucumber seedlings,G
same,pest or weed control at 100 ppm,Venturia inaequalis,100%
same,inhibition of growth at 100 µg/mL,Monilinia fructicola,70%
same,pest or weed control at 100 ppm,Erysiphe cichoracearum,100%
"C[Si](Cn1cncn1)(c1ccccc1)c1ccc(F)cc1 (stereo not shown) [(4-Fluorophenyl)methyl(phenyl)(1H-1,2,4-triazol-1-ylmethyl)silane]",% Control Bean Rust,Uromyces phaseoli; applied at 16 ppm,100%
same,No. of 5 Phytophthora species controlled in vitro,5 Phytophthora species,0
same,pest or weed control at 100 ppm,Rhizoctonia solani,80%
same,pest or weed control at 100 ppm,Pyricularia oryzae,0%
same,pest or weed control at 100 ppm,[2],90%
same,pest or weed control at 100 ppm,Phytophthora infestans,0%
same,pest or weed control at 100 ppm,Helminthosporium maydis,90%
same,pest or weed control at 100 ppm,Cercospora arachidicola,100%
same,pest or weed control at 100 ppm,Venturia inaequalis,100%
same,inhibition of growth at 100 µg/mL,Monilinia fructicola,90%
same,pest or weed control at 100 ppm,Erysiphe cichoracearum,100%
"CCCC[Si](C)(Cn1cncn1)c1ccc(Cl)cc1Cl (stereo not shown) [Butyl(2,4-dichlorophenyl)methyl(1H-1,2,4-triazol-1-ylmethyl)silane]",No. of 5 Phytophthora species controlled in vitro,5 Phytophthora species,0
same,pest or weed control at 100 ppm,Rhizoctonia solani,50%
same,pest or weed control at 100 ppm,Pyricularia oryzae,0%
same,pest or weed control at 100 ppm,[2],100%
same,pest or weed control at 100 ppm,Phytophthora infestans,0%
same,pest or weed control at 100 ppm,Helminthosporium maydis,100%
same,pest or weed control at 100 ppm,Cercospora arachidicola,100%
same,Phytotoxicity on cucumber,cucumber seedlings,G
same,pest or weed control at 100 ppm,Venturia inaequalis,100%
same,inhibition of growth at 100 µg/mL,Monilinia fructicola,98%
same,pest or weed control at 100 ppm,Erysiphe cichoracearum,100%
same,Phytotoxicity on apple,apple seedlings [3],G
"C[Si](C)(Cn1cncn1)c1ccc(F)cc1 [Dimethyl(4-fluorophenyl)(1H-1,2,4-triazol-1-ylmethyl)silane]",Phytotoxicity on apple,apple seedlings [4]; 100 ppm spray,C
same,pest or weed control at 100 ppm,Rhizoctonia solani,0%
same,pest or weed control at 100 ppm,Pyricularia oryzae,0%
same,pest or weed control at 100 ppm,[2],100%
same,pest or weed control at 100 ppm,Phytophthora infestans,0%
same,pest or weed control at 100 ppm,Helminthosporium maydis,90%
same,pest or weed control at 100 ppm,Cercospora arachidicola,50%
same,Phytotoxicity on cucumber,cucumber seedlings,G
same,pest or weed control at 100 ppm,Venturia inaequalis,80%
same,pest or weed control at 100 ppm,Erysiphe cichoracearum,100%
"CCCCCCCCCCCC[Si](C)(C)Cn1cncn1 [Dodecyl(dimethyl)(1H-1,2,4-triazol-1-ylmethyl)silane]",Phytotoxicity on apple,apple seedlings [4]; applied at 400 ppm,B
same,pest or weed control at 200 ppm,Erysiphe graminis; applied at 200 ppm,100%
same,pest or weed control at 200 ppm,[2]; applied at 200 ppm,100%
same,pest or weed control at 100 ppm,Helminthosporium maydis,0%
same,pest or weed control at 400 ppm,Venturia inaequalis; applied at 400 ppm,40%
same,pest or weed control at 400 ppm,Erysiphe cichoracearum; applied at 400 ppm,60%
"C[Si](Cn1cncn1)(c1ccc(Cl)cc1)c1ccc(Cl)cc1 [bis(4-Chlorophenyl)methyl(1H,-1,2,4-triazol-1-ylmethyl)silane]",pest or weed control at 100 ppm,Erysiphe graminis,100%
same,Phytotoxicity on bean,bean seedlings,G
same,No. of 5 Phytophthora species controlled in vitro,5 Phytophthora species,0
same,pest or weed control at 100 ppm,Rhizoctonia solani,0%
same,pest or weed control at 100 ppm,Pyricularia oryzae,90%
same,pest or weed control at 2 g/kg seed,Pythium aphanadermatum [1],0%
same,pest or weed control at 100 ppm,[2],90%
same,pest or weed control at 100 ppm,Phytophthora infestans,0%
same,pest or weed control at 100 ppm,Helminthosporium maydis,80%
same,pest or weed control at 100 ppm,Cercospora arachidicola,100%
same,pest or weed control at 100 ppm,Venturia inaequalis,100%
same,inhibition of growth at 100 µg/mL,Monilinia fructicola,95%
same,pest or weed control at 100 ppm,Erysiphe cichoracearum,100%
"C[Si](Cn1cncn1)(c1ccc(F)cc1)c1ccc(F)cc1 [bis(4-Fluorophenyl)methyl(1H,-1,2,4-triazol-1-ylmethyl)silane]",% Control Bean Rust,Uromyces phaseoli; applied at 16 ppm,98%
same,No. of 5 Phytophthora species controlled in vitro,5 Phytophthora species,0
same,pest or weed control at 100 ppm,Rhizoctonia solani,80%
same,pest or weed control at 100 ppm,Pyricularia oryzae,100%
same,pest or weed control at 2 g/kg seed,Pythium aphanadermatum [1],0%
same,pest or weed control at 100 ppm,[2],0%
same,pest or weed control at 100 ppm,Phytophthora infestans,0%
same,pest or weed control at 100 ppm,Helminthosporium maydis,100%
same,pest or weed control at 100 ppm,Cercospora arachidicola,100%
same,Phytotoxicity on cucumber,cucumber seedlings,G
same,pest or weed control at 100 ppm,Venturia inaequalis,100%
same,inhibition of growth at 100 µg/mL,Monilinia fructicola,100%
same,pest or weed control at 100 ppm,Erysiphe cichoracearum,100%
same,pest or weed control at 2 g/kg seed,Pythium aphanadermatum [5],0%
